For 24 molecules, T/C results are on record in PubChem BioAssay AID330 (DTP/NCI, 2004).

The test relates to P388 leukemia ip, CD2F1 mice, survival T/C. The experiment in a line: NCI In Vivo Anticancer Drug Screen. Data for tumor model P388 Leukemia (intraperitoneal) in CD2F1 (CDF1) mice. The following applies: endpoint: median survival time, higher = longer survival. The method, boiled down: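 Mice carrying the transplanted tumor received test compound or vehicle. Survival was recorded in each group, and the value is the treated-group measurement divided by that of the vehicle-treated control group.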

Setting [1] is: dose: 100.0 mg/kg/injection, schedule: Q04DX003 (ip), vehicle: saline.
[2] abbreviates: dose: 200.0 mg/kg/injection, schedule: Q04DX003 (ip), vehicle: saline.
The mark [3] stands for this setting: dose: 400.0 mg/kg/injection, schedule: Q04DX003 (ip), vehicle: saline.
Where [4] appears, read: dose: 50.0 mg/kg/injection, schedule: Q01DX009 (ip), vehicle: saline with Tween-80.
Setting [5] is: dose: 100.0 mg/kg/injection, schedule: Q01DX009 (ip), vehicle: saline with Tween-80.
The mark [6] stands for this setting: dose: 200.0 mg/kg/injection, schedule: Q01DX009 (ip), vehicle: saline with Tween-80.
Where [7] appears, read: dose: 25.0 mg/kg/injection, schedule: Q01DX009 (ip), vehicle: saline with Tween-80.
The mark [8] stands for this setting: dose: 100.0 mg/kg/injection, schedule: Q04DX003 (ip), vehicle: saline with Tween-80.
Where [9] appears, read: dose: 200.0 mg/kg/injection, schedule: Q04DX003 (ip), vehicle: saline with Tween-80.
Setting [10] is: dose: 400.0 mg/kg/injection, schedule: Q04DX003 (ip), vehicle: saline with Tween-80.
The mark [11] stands for this setting: dose: 100.0 mg/kg/injection, schedule: Q04DX002 (ip), vehicle: Klucel (hydroxypropylcellulose) (HPC).
The mark [12] stands for this setting: dose: 200.0 mg/kg/injection, schedule: Q04DX002 (ip), vehicle: Klucel (hydroxypropylcellulose) (HPC).
Setting [13] is: dose: 50.0 mg/kg/injection, schedule: Q01DX005 (ip), vehicle: saline with Tween-80.
[14] abbreviates: dose: 100.0 mg/kg/injection, schedule: Q01DX005 (ip), vehicle: saline with Tween-80.
[15] abbreviates: dose: 60.0 mg/kg/injection, schedule: Q01DX005 (ip), vehicle: saline with Tween-80.
Setting [16] is: dose: 120.0 mg/kg/injection, schedule: Q01DX005 (ip), vehicle: saline with Tween-80.
Where [17] appears, read: dose: 240.0 mg/kg/injection, schedule: Q01DX005 (ip), vehicle: saline with Tween-80.

“And” between values parts separate entries of the source, which are not always exact repeats. Equal values may be shown once. Inconclusive results and toxic doses are left out.

In the case of `NC(=O)C(NC(=O)c1ccc([N+](=O)[O-])cc1)C(N)=O`, the T/C under setting [1] is 103 % of control, the T/C under setting [2] is 103 % of control and the T/C under setting [3] was 103 % of control.

Consider `CC(C)C(=O)Nc1ccc(S(=O)(=O)Nc2ccc(N)cc2O)cc1`, for which the T/C was 96 % of control under setting [4], 101 % of control under setting [5] and 104 % of control under setting [6].

As to `O=C(NC(=S)c1ccc(Br)cc1)Nc1ccc(Cl)c(Cl)c1`, the T/C reads like this: (dose: 12.5 mg/kg/injection, schedule: Q01DX009 (ip), vehicle: saline with Tween-80) 96 % of control; under setting [7], 98 % of control; under setting [4], 106 % of control.

Turning to `CCS/C(SC)=C(/c1ccccc1)[P+](c1ccccc1)(c1ccccc1)c1ccccc1`, the T/C (dose: 3.12 mg/kg/injection, schedule: Q01DX005 (ip), vehicle: Klucel (hydroxypropylcellulose) (HPC)) is 106 % of control and the T/C (dose: 12.5 mg/kg/injection, schedule: Q01DX005 (ip), vehicle: Klucel (hydroxypropylcellulose) (HPC)) is 117 % of control.

As to `CC(C)(C)SC(=O)C[Si](C)(C)C`, the T/C by setting is: (dose: 50.0 mg/kg/injection, schedule: Q04DX003 (ip), vehicle: saline with Tween-80) 103 % of control and 105 % of control; under setting [8], 107 % of control and 94 % of control; under setting [9], 111 % of control and 118 % of control; under setting [10], 110 % of control.

Regarding `COC1=CC(=O)C(Cc2ccc3c(c2)OCO3)=CC1=O`, the T/C is, setting by setting: (dose: 2.5 mg/kg/injection, schedule: Q01DX009 (ip), vehicle: saline with Tween-80) 101 % of control; (dose: 5.0 mg/kg/injection, schedule: Q01DX009 (ip), vehicle: saline with Tween-80) 99 % of control; (dose: 10.0 mg/kg/injection, schedule: Q01DX009 (ip), vehicle: saline with Tween-80) 101 % of control.

As for `NC(=O)CCC1CC(=O)c2ccccc2C1` (stereo not drawn), the T/C reads like this: (dose: 100.0 mg/kg/injection, schedule: Q01DX001 (ip), vehicle: Klucel (hydroxypropylcellulose) (HPC)) 94 % of control; (dose: 200.0 mg/kg/injection, schedule: Q01DX001 (ip), vehicle: Klucel (hydroxypropylcellulose) (HPC)) 108 % of control; (dose: 400.0 mg/kg/injection, schedule: Q01DX001 (ip), vehicle: Klucel (hydroxypropylcellulose) (HPC)) 92 % of control.

With `CCN(CC)CCOCCCNc1ccnc2cc(Cl)ccc12`, the T/C by setting is: (dose: 50.0 mg/kg/injection, schedule: Q01DX005 (ip), vehicle: saline) 100 % of control; (dose: 100.0 mg/kg/injection, schedule: Q01DX005 (ip), vehicle: saline) 103 % of control.

As for `O=C(Nc1ccc(Nc2ccc(NC(=O)c3ccccc3)c3c2C(=O)c2ccccc2C3=O)c2c1C(=O)c1ccccc1C2=O)c1ccccc1`, the T/C by setting is: under setting [8], 95 % of control; under setting [9], 100 % of control; under setting [10], 100 % of control.

For the molecule `Nc1ccc(S(=O)(=O)n2c(=O)oc3ccc(Cl)cc32)cc1`, the T/C (dose: 50.0 mg/kg/injection, schedule: Q04DX002 (ip), vehicle: Klucel (hydroxypropylcellulose) (HPC)) was 97 % of control; the T/C under setting [11] was 97 % of control; the T/C under setting [12] was 90 % of control.

With `CCCCCCCCCCCCS(=O)(=O)CCC(=O)c1ccco1`, the T/C was 99 % of control under setting [1], 99 % of control under setting [2] and 97 % of control under setting [3].

On to `O=C1c2ccccc2-n2c1nc1ccccc1c2=O`, for which the T/C was 102 % of control under setting [13]; 100 % of control under setting [14]; 107 % of control (dose: 200.0 mg/kg/injection, schedule: Q01DX005 (ip), vehicle: saline with Tween-80).

Consider `Cc1cc(C)nc(NS(=O)(=O)c2ccc(N=NC3=C(O)C(c4ccccc4)N(c4ccccc4)C3=O)cc2)n1` (stereo not drawn), for which the T/C is 93 % of control (dose: 60.0 mg/kg/injection, schedule: Q01DX005 (ip), vehicle: saline) and 86 % of control (dose: 120.0 mg/kg/injection, schedule: Q01DX005 (ip), vehicle: saline).

Turning to `CC1=NN(C(=O)c2ccncc2)C(=O)C1N=Nc1ccc(S(=O)(=O)Nc2nc(C)cc(C)n2)cc1` (stereo not drawn), the T/C under setting [4] was 104 % of control, the T/C under setting [5] was 95 % of control and the T/C under setting [6] is 95 % of control.

Take `O=C1C=C2SCCN2C(=O)C1`: the T/C was 101 % of control under setting [7], 92 % of control under setting [4], 97 % of control under setting [5] and 99 % of control under setting [6].

As to `Cc1ccc(Cl)cc1NC(=O)N(C)CCOC(=O)Nc1cccc(Cl)c1`, the T/C is 93 % of control (dose: 60.0 mg/kg/injection, schedule: Q01DX005 (ip), vehicle: Klucel + Tween-80) and 92 % of control (dose: 120.0 mg/kg/injection, schedule: Q01DX005 (ip), vehicle: Klucel + Tween-80).

Consider `COc1ccc(-c2cc(C(=O)O)c3cc4ccccc4cc3n2)cc1Br`, for which the T/C was 94 % of control under setting [4]; 93 % of control and 97 % of control under setting [5]; 105 % of control and 87 % of control under setting [6]; 121 % of control and 89 % of control (dose: 400.0 mg/kg/injection, schedule: Q01DX009 (ip), vehicle: saline with Tween-80); 101 % of control (dose: 600.0 mg/kg/injection, schedule: Q01DX009 (ip), vehicle: saline with Tween-80).

With `COc1ccc(-c2cc(=O)c3c(O)c(OC)c(OC)cc3o2)cc1O`, the T/C runs as follows: (dose: 18.8 mg/kg/injection, schedule: Q04DX002 (ip), vehicle: saline with Tween-80) 96 % of control; (dose: 37.5 mg/kg/injection, schedule: Q04DX002 (ip), vehicle: saline with Tween-80) 102 % of control; (dose: 75.0 mg/kg/injection, schedule: Q04DX002 (ip), vehicle: saline with Tween-80) 93 % of control; (dose: 150.0 mg/kg/injection, schedule: Q04DX002 (ip), vehicle: saline with Tween-80) 96 % of control.

In the case of `CC(N)C(=O)OCN1C(=O)C2C3C=CC(C2C1=O)C1C2C(=O)N(COC(=O)C(C)N)C(=O)C2C31` (stereo not drawn), the T/C (dose: 25.0 mg/kg/injection, schedule: Q01DX009 (ip), vehicle: water) was 109 % of control and 112 % of control; the T/C (dose: 50.0 mg/kg/injection, schedule: Q01DX009 (ip), vehicle: water) was 108 % of control; the T/C (dose: 100.0 mg/kg/injection, schedule: Q01DX009 (ip), vehicle: water) was 178 % of control and 193 % of control.

As to `O=S(=O)(c1ccc(N=Cc2cccs2)cc1)c1ccc(N=Cc2cccs2)cc1`, the T/C is 99 % of control (dose: 50.0 mg/kg/injection, schedule: Q01DX009 (ip), vehicle: saline); 98 % of control (dose: 100.0 mg/kg/injection, schedule: Q01DX009 (ip), vehicle: saline); 91 % of control and 95 % of control (dose: 200.0 mg/kg/injection, schedule: Q01DX009 (ip), vehicle: saline).

For `Cc1ccc(S(=O)(=O)N/N=C2/CCCC(S(=O)(=O)c3ccc(C)cc3)C2)cc1` (stereo not drawn), the T/C (dose: 25.0 mg/kg/injection, schedule: Q01DX005 (ip), vehicle: saline with Tween-80) is 111 % of control; the T/C under setting [13] is 98 % of control; the T/C under setting [14] is 93 % of control.

Turning to `O=C(c1ccccc1)C1COc2ccccc2C1O` (stereo not drawn), the T/C reads like this: under setting [15], 109 % of control; under setting [16], 94 % of control; under setting [17], 94 % of control.

With `O=c1[nH]/c(=C/c2ccc(CO)o2)c(=O)[nH]/c1=C\c1ccc(CO)o1`, the T/C by setting is: (dose: 12.5 mg/kg/injection, schedule: Q01DX009 (ip), vehicle: distilled water + Tween-80) 90 % of control; (dose: 25.0 mg/kg/injection, schedule: Q01DX009 (ip), vehicle: distilled water + Tween-80) 89 % of control; (dose: 50.0 mg/kg/injection, schedule: Q01DX009 (ip), vehicle: distilled water + Tween-80) 87 % of control; (dose: 100.0 mg/kg/injection, schedule: Q01DX009 (ip), vehicle: distilled water + Tween-80) 87 % of control; (dose: 200.0 mg/kg/injection, schedule: Q01DX009 (ip), vehicle: distilled water + Tween-80) 90 % of control.

Consider `Nc1nc(=O)nc2[nH]c3c4cccc5cccc(c3nc12)c54`, for which the T/C under setting [15] is 96 % of control; the T/C under setting [11] is 100 % of control; the T/C under setting [16] was 93 % of control; the T/C under setting [12] was 100 % of control; the T/C under setting [17] is 100 % of control; the T/C (dose: 400.0 mg/kg/injection, schedule: Q04DX002 (ip), vehicle: Klucel (hydroxypropylcellulose) (HPC)) was 101 % of control.
